Assays:
[1] = in children; cited from earlier work
[2] = physchem

Structure (SMILES)	elimination half-life [1]	solubility ([2]; pH 1, simulated gastric fluid)	solubility ([2]; pH 4.7, aqueous buffer)	solubility ([2]; pH 4.84, aqueous buffer)	solubility ([2]; pH 5.87, aqueous buffer)	solubility ([2]; pH 6.17, aqueous buffer)	solubility ([2]; pH 6.7, aqueous buffer)
CCCC(CCC)C(=O)O [valproic acid, 2-propylpentanoic acid]	four and fourteen	–	–	–	–	–	–
CCCC(CCC)C(=O)O [Divalproex sodium, sodium hydrogen divalproate]	–	1 mg/mL	2 mg/mL	3.4 mg/mL	21 mg/mL	36 mg/mL	200 mg/mL

From patent EP1146864B1, “PH INDEPENDENT EXTENDED RELEASE PHARMACEUTICAL FORMULATION” (ABBOTT LABORATORIES, priority 1999, dated 2000)
